Test results from patent EP0060954A1, “Derivatives of fluorophenacyl amines and their therapeutic use” (LABORATOIRE L. LAFON Société anonyme dite:, priority 1981, dated 1982).
Several values for one entry are separate records, joined by “and”; a condition that tells them apart may be missing. Equal values may be shown once.

Legend:
homme = experiment: Clinical use as sedative and antidepressant agents; format: in vivo; conditions: for résultats en tant qu'agents antidépresseurs chez l'homme: tablets or capsules of 5 mg, 3 per day
chiens [1] = experiment: Cardiovascular action, intravenous perfusion in dogs; format: in vivo, chien; conditions: for minimal effective dose: Canis lupus familiaris, iv
Procedure: Deux chiens reçoivent le CRL 40727 par voie intraveineuse, en perfusion de 6 min, aux doses successives de 0,1 mg/kg, 1 mg/kg, 2,5 mg/kg, 5 mg/kg, 10 mg/kg et 20 mg/kg. On messure leur pression artérielle, leur fréquence cardiaque, leur débit fémoral, leur température rectale.

chiens [2] = experiment: Cardiovascular action, intraduodenal route in dogs; format: in vivo, chien
Procedure: Trois chiens reçoivent le CRL 40727 par voie intraduodénale aux doses successives de 1 mg/kg, 2,5 mg/kg, 5 mg/kg et 10 mg/kg. On mesure les mêmes paramètres que ci-dessus. On observe ce qui suit.

souris mâles = experiment: Intergroup aggressiveness test (number of fights after removal of the partition); format: in vivo; conditions: mouse; dose not given
Description: Des essais comparatifs ont été entrepris pour mettre en évidence quels sont les effets chez l'animal qui permettent de distinguer les produits selon l'invention de leurs homologues fluorés connus. Parmi ces essais, on a résumé ceux concernant les propriétés antiagressives. Plus précisément, on a évalué la diminution de l'agressivité intergroupes selon la technique suivante : a.près avoir séjourné pendant 3 semaines de part et d'autre d'une cloison opaque séparant leur cage par le milieu, des groupes de trois souris mâles de 20 g chacune environ reçoivent, par voie intrapéritonéale, les produits à tester en solution dans de l'eau distillée, les animaux témoins ne recevant que de l'eau distillée par voie intrapéritonéale. Une demi-heure plus tard, les deux groupes d'une même cage sont réunis par retrait de la cloison opaque et on note le nombre de combats qui surviennent en 10 min. On a utilisé trois cages pour chaque produit à tester et six cages pour le lot témoin ne recevant pas les produits à tester.
Les résultats du tableau I ci-après donnent la diminution de l'agressivité intergroupes par rapport au lot témoin, tous les produits à tester étant administrés à la dose de 8 mg/kg par voie intrapéritonéale. […]

souris [3] = experiment: Toxicity: maximal non-lethal dose DL-0, intraperitoneal; format: in vivo; conditions: mouse, i.p.
Procedure: La dose maximale non mortelle, DL-0, est supérieure à 128 mg/kg et inférieure à 256 mg/kg, chez la souris, par voie I.P. 2°) - Action sur le SNC
(§1) Le CRL 40827, en solution dans de l'eau distillée, a été administré par voie intrapéritonéale sous un volume de 20 ml/kg chez la souris mâle et un volume de 5 ml/kg chez le rat mâle. 1°) - Toxicité
La dose maximale non mortelle, DL-0, est supérieure à 64 mg/kg et inférieure à 128 mg/kg chez la souris mâle.
Le CRL 40854, en solution dans de l'eau distillée, a été administré par voie intrapéritonéale sous un volume de 20 ml/kg chez la souris màle et de 5 ml/kg chez le rat màle.
La dose maximale non mortelle DL-0 est supérieure à 128 mg/kg et inférieure à 256 mg/kg chez la souris.

souris [4] = experiment: Interaction with apomorphine, mouse; format: in vivo
Procedure: as §1
Des lots de 6 souris reçoivent le CRL 40827 30 min avant l'injection sous-cutanée d'apomorphine à la dose de 1 ou 16 mg/kg.
(§2) En procédant selon les modalités opératoires données ci-dessus pour le CRL 40827, on observe ce qui suit.

rat = experiment: Interaction with apomorphine, rat; format: in vivo; conditions: i.p. 30 min before apomorphine 0,5 mg/kg s.c.
Procedure: as §1
Le CRL 40 827 est administré à des lots de 6 rats 30 min avant l'injection sous-cutanée de 0,5 mg/kg d'apomorphine.
as §2

rats = experiment: Interaction with amphetamine (stereotypies); format: in vivo, rat; conditions: 8 and 32 mg/kg
Procedure: L'amphétamine (2 mg/kg) est injectée par voie intrapéritonéale à des lots de 6 rats, 30 min après l'administration de CRL 40827. […] Interaction avec la réserpine
as §2

souris [5] = experiment: Interaction with reserpine (hypothermia, ptosis); format: in vivo; conditions: mouse
Procedure: Quatre heures après l'injection intrapéritonéale de 2,5 mg/kg de réserpine, des lots de 6 souris reçoivent le CRL 40827.
as §2

souris [6] = experiment: Interaction with oxotremorine; format: in vivo; conditions: mouse
Procedure: Le CRL 40827 est administré à des lots de 6 souris 30 min avant l'injection intrapéritonéale de 0,5 mg/kg d'oxotrémo- rine. On observe que, dès la dose de 0,5 mg/kg, le CRL 40827 antagonise l'action hypothermisante de l'oxotrémorine; cet effet est très net à 32 mg/kg.
as §2

souris [7] = experiment: Four-plate test, traction and electroshock; format: in vivo; conditions: mouse, 30 min after dosing
Procedure: Le test est pratiqué sur des lots de 10 souris, 30 min après l'administration de CRL 40827.
as §2

souris [8] = experiment: Spontaneous motility (actimeter); format: in vivo; conditions: mouse; high dose 64 mg/kg
Procedure: Une demi-heure après avoir reçu le CRL 40827, les souris (6 par dose, 12 témoins) sont placées en actimètre où leur motilité est enregistrée pendant 30 min.
as §2

souris [9] = experiment: Motility reduced by habituation to the enclosure; format: in vivo; conditions: mouse
Procedure: Après 18 h de séjour dans les actimètres, les souris (6 par dose, 12 témoins) reçoivent le CRL 40827. Elles sont aussitôt replacées dans leurs enceintes respectives et, 30 min plus tard, on enregistre leur motilité pendant 30 min.
as §2

souris [10] = experiment: Motility reduced by hypoxic aggression (acute hypobaric anoxia); format: in vivo; conditions: mouse
Procedure: Une demi-heure après avoir reçu le CRL 40827, les souris (10 par dose, 20 témoins) sont soumises à une anoxie hypobare aiguë (dépression de 8 x 10^4 Pa en 90 s, détente de 45 s), puis elles sont placées en actimètre où leur motilité est enregistrée pendant 10 min.
as §2

souris [11] = experiment: Asphyxic anoxia (gallamine triethiodide); format: in vivo; conditions: mouse
Procedure: Des lots de 10 souris reçoivent le CRL 40827 30 min avant l'administration intrapéritonéale d: 34 mg/kg de triiodoéthy- late de gallamine. A la plus forte dose (34 mg/kg),le CRL 40827 empêche l'apparition des convulsions et de la mort chez 40% des animaux.
as §2

souris [12] = experiment: CNS action of CRL 40727: sedative-type effects in the mouse; format: in vivo
[13] = CNS action of CRL 40727: hypothermia and amphetamine stereotypies (species not given); conditions: in vivo

SMILES: CC(C)(C)NCC(O)c1ccccc1F (stereo not shown) [CRL 40827A, fumaratede 1-(2-fluorophényl)-2-tertiobutylamino-1-éthanol]
- résultats en tant qu'agents antidépresseurs chez l'homme (homme): excellents résultats

SMILES: COc1cc(OC)c(C(=O)CCCN2CCCC2)c(OC)c1 [LL 1656, chlorhydratede (2,4,6-triméthoxyphényl)-(3-pyrrolidino-propyl)-cétone, reference compound]
- débit fémoral (chiens [1]; one dog, 6 mg/kg I.V. after the CRL 40727 doses): n'augmente pas plus qu'avec la dose de 10 mg/kg de CRL 40727
- vasodilatation (chiens [2]; 6 mg/kg i.v., injected after CRL 40727): n'entraîne pas de vasodilatation supplémentaire

SMILES: CC(C)(C)NCC(O)c1ccc(F)cc1 (stereo not shown) [CRL 40854, chlorhydratede 1-(4-fluorophényl)-2-tertiobutylamino-1-éthanol]
- agressivité intergroupes / effet antiagressif (souris mâles): diminue l'agressivité intergroupes
- dose maximale non mortelle, DL-0 (souris [3]): > 128 mg/kg and < 256 mg/kg
- comportement de verticalisation et stéréotypies (apomorphine) (souris [4]): sans modifier
- action hypothermisante de l'apomorphine (souris [4]; 16 and 64 mg/kg i.p.): s'oppose modérément
- stéréotypies induites par l'apomorphine (rat): ne modifie pas
- durée des stéréotypies amphétaminiques (rats): potentialise
- ptôsis réserpinique (souris [5]): gans modifier
- hypothermie réserpinique (souris [5]; 4, 16 and 64 mg/kg): antagonise modérément
- signes de stimulation cholinergique périphérique (oxotrémorine) (souris [6]): ne modifie pas
- tremblements provoqués par l'oxotrémorine (souris [6]): ne modifie pas
- effet hypothermisant de l'oxotrémorine (souris [6]; doses printed 'le et 64 mg/kg'): aggrave
- effets convulsivants de l'électrochoc (souris [7]): ne modifie pas les effets convulsivants
- incapacité motrice (traction) (souris [7]): ne provoque pas de déficit moteur majeur
- nombre de passages punis (test des quatre plaques) (souris [7]): n'entraîne pas d'augmen- tion
- motilité spontanée (souris [8]): diminue modérément
- activité motrice (souris habituée à son enceinte) (souris [9]): ne provoque pas de reprise nette
- récupération motrice après anoxie hypobare (souris [10]): n'entraîne pas d'amélioration
- apparition des convulsions et mort (anoxie par curarisation) (souris [11]): ne modifie pas

SMILES: CC(C)NCC(=O)c1ccc(F)cc1 [CRL 40727, chlorhydratede N-(4-fluorophénacyl)-isopropylamine]
- dose maximale non mortelle, DL-0 (souris [3]): > 128 mg/kg and < 256 mg/kg
- effets de type sédatif: motilité et agressivité (souris [12]): hypomotilité et diminution de l'agressivité
- effets de type sédatif: sédation, réactivité (souris [12]): sédation et hyporéactivité
- effets de type sédatif: température, effets hypothermisants de l'apomorphine, l'oxotrémorine et la réserpine [13]: hypothermie et potentialisation des effets hypothermisants de l'apomorphine, l'oxotrémorine et la réserpine
- stéréotypies amphétaminiques [13]: antagonisme modéré
- minimal effective dose (chiens [1]; dog, i.v., successive doses 0,1 to 20 mg/kg, read-out: dose from which the débit fémoral increases): 1 mg/kg
- minimal effective dose (chiens [1]; dog, i.v., read-out: dose from which the pression artérielle diastolique decreases): 10 mg/kg
- minimal effective dose (chiens [1]; dog, i.v., read-out: dose from which the pression artérielle différentielle increases): 5 mg/kg
- minimal effective dose (chiens [1]; dog, i.v., read-out: dose from which the pression artérielle moyenne decreases): 20 mg/kg
- fréquence cardiaque (chiens [1]; dog, i.v.): n'est pas nettement modifiée
- hypotension à l'isoprénaline (chiens [1]; dog, i.v.): n'est pas modifiée
- fréquence cardiaque (tachycardie à l'isoprénaline) (chiens [1]; dog, mean, after 10 mg/kg i.v., control 215): 182 battements/min
- pression artérielle (chiens [1]; one dog, supplementary dose of 40 mg/kg I.V.): hypotension plus importante qu'à la dose précédente
- minimal effective dose (chiens [2]; Canis lupus familiaris, dog, intraduodenal, read-out: dose from which une action hypotensive appears): 10 mg/kg
- action hypotensive et vasodilatatrice (chiens [2]; another dog, 5 mg/kg I.V. at the end of the intraduodenal test): Le même résultat
- hypotension à l'isoprénaline (chiens [2]; dog, intraduodenal): n'est pas modifiée
- fréquence cardiaque (tachycardie à l'isoprénaline) (chiens [2]; dog, mean, after 10 mg/kg intraduodenal, control 220): 165 battements/min
- action hypotensive et vasodilatatrice (chiens [2]; one dog, supplementary dose of 20 mg/kg I.D.): action hypotensive plus importante, sans effet vasodilatateur supplémentaire
- comportement de verticalisation et stéréotypies (apomorphine) (souris [4]): ne modifie pas
- action hypothermisante de la forte dose d'apomorphine (souris [4]; 0,5, 2 and above all 8 and 32 mg/kg i.p., 30 min before apomorphine 16 mg/kg s.c.): s'oppose nettement
- résultats cliniques dans le domaine psychotrope en tant qu'agents sédatifs et antidépresseurs (homme; clinic): bons résultats
- résultats en tant qu'agents antidépresseurs chez l'homme (homme): excellents résultats
